Measurements from patent US5232924A, “Heterocyclic compound having serotonine 2-receptor antagonistic activity” (Daiichi Pharmaceutical Co., Ltd., priority 1989, dated 1993).
Structures can show the parent of a compound that is named as a salt.

Assays:
Serotonin 2-Receptor = molecular target: T1, Serotonin 2-Receptor (Rattus norvegicus, UniProt P14842); assay: Antagonistic activity on serotonin 2-receptor: inhibition of the serotonin-induced increase in blood pressure in anesthetized rats; type: in vivo; details: SD-SLC male rat, 10 mg/kg p.o., inhibition of blood pressure increase by serotonin 300 μg/kg i.v.
T1 construct: from tissue; host or cells: intact anesthetized SD-SLC male rat (vascular response)
T1 sequence (P14842 whole entry): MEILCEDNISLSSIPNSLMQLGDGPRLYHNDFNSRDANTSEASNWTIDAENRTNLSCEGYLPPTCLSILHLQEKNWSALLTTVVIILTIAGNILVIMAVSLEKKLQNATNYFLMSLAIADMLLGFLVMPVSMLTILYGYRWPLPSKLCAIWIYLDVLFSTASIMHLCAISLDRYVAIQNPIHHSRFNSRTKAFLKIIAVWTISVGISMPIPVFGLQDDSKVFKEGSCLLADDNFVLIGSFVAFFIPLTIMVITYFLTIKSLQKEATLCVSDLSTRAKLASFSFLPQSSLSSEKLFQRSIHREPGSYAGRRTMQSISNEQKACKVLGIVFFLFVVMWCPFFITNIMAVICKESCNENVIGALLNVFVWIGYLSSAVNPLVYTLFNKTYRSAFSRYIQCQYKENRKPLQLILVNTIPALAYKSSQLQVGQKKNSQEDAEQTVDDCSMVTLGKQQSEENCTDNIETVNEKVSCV
Description: A test compound dissolved in purified water was orally administered to an SD-SLC male rat at a dose of 10 mg/kg. After 30 minutes from the administration, the rat was anesthetized with urethane (1 g/kg, i.p.) and α-Chloralose (80 mg/kg, i.p.). A polyethylene cannula was inserted into the carotid artery, and the blood pressure was recorded on a polygraph by using a pressure transducer. After 60 minutes or 180 minutes from the administration of the test compound, 300 μg/kg of serotonin was intravenously injected, and an increase in blood pressure was observed. Serotonin 2 (hereinafter referred to as […]) antagonistic activity of the test compound was calculated as a percentage of inhibition of an increase in blood pressure induced by […]. The inhibitory effect of the test compound wa compared with that of vehicle solution treated group.

[1] = system: Sympathetic Nerve α1 -Receptor; assay: Antagonistic activity on sympathetic nerve α1-receptor: inhibition of the phenylephrine-induced increase in blood pressure in anesthetized rats; type: in vivo; details: SD-SLC male rat, 10 mg/kg p.o.; after 60 minutes from the administration; inhibition of blood pressure increase by phenylephrine 100 μg/kg i.v.
Description: A test compound dissolved in purified water was orally administered to an SD-SLC male rat at a dose of 10 mg/kg. After 30 minutes from the administration, the rat was anesthetized with urethane (1 g/kg, i.p.) and α-Chloralose (80 mg/kg, i.p.). A polyethylene cannula was inserted into the carotid artery, and the blood pressure was recorded on a polygraph by using a pressure transducer. After 60 minutes from the administration of the test compound, 100 μg/kg of phenylephrine was intravenously injected to observe an increase in blood pressure. Sympathetic nerve α1 -receptor antagonistic activity of the test compound was calculated as a percentage of inhibition of an increase in blood pressure induced by phenylephrine. The inhibitory effect of the test compound was compared with that of vehicle solution treated group.

Mongrel dogs [2] = assay: Acute cardiac infarction model: LDA ligature and reperfusion in dogs; type: in vivo; details: dog, 1 mg/kg/hr intravenous drip, mean ± S.E.M.
Description: Mongrel dogs (body weight: 8 to 20 kg) under anesthesia were ventilated artificially and underwent a left thracotomy. […] A polyethylene cannula was inserted into the femoral artery, and the blood pressure and heart rate were recorded A cannula was inserted into the […] of a drug and also into the carotid artery from which a blood sample was to be taken. After stabilization period of the test preparation, LDA was ligated with a clamp. After 2 hours from the ligature, the clamp was released for reperfusion. After observation for the following 4 hours, the heart was excised. […] Then, the heart was washed and sliced at 1 cm intervals from the apex in the direction vertical to the longer axis. Each slice at the left ventricle was divided into a part which was in risk of cardiac infarction indicated by Evans' Blue stain (hereinafter referred to as risk area) and a normal area, and each area was weighed. The weight of the left ventricle (the sum of the risk area and the normal area) and that of the risk area of each slice were individually added up to obtain the weight of the whole left ventricle and the total weight of the risk area. Further, of each slice, the area of the risk area which was not stained with Evans' Blue and that of a cardiac infarction area within the risk area which remained white, i.e., which was stained neither in blue with Evans' Blue nor in red with triphenyltetrazolium chloride, were measured to obtain a ratio of cardiac infarction part to the whole left ventricle (infarction size). […] The experiment was conducted for the following groups.

ddy male mice = assay: Toxicity in mice, repeated oral administration; type: in vivo, mouse
Description: A test compound dissolved or suspended in a 1% methyl cellulose solution was orally administered to ddy male mice (4 or 5 mice per group) at a dose of 200 mg/kg once a day for consecutive 4 days. The number of dead animals per group was counted on the day next to the final administration day. As a control, 10 mλ/kg of 1% methyl cellulose solution was orally administered.

rats = assay: Toxicity in rats, oral administration for 10 days; type: in vivo, rat; details: 5 test animals
Mongrel dogs [3] = assay: Angina pectoris model: partial LDA occlusion with cyclic coronary flow reduction in dogs; type: in vivo; details: dog, 0.1 mg/kg i.v. (maleate); mean ± S.E.M.; before admin. 9.9 ± 2.5
Description: Mongrel dogs (body weight: 8 to 20 kg) under anesthesia with pentobarbital (30 mg/kg, i.v.) were ventilated artificially and underwent a left thoracotomy. LDA was separated from connected tissues. A silicone tube for partial occlusion was placed around the LDA, and a probe for blood flow rate measurement was fixed in the neighborhood. The blood flow rate was measured with a pulse Doppler blood flow meter. A cannula was inserted into a branch distal to the occlusion site of the left coronary artery, and the coronary blood pressure was measured. A polyethylene cannula was inserted into the femoral artery, and the systemic blood pressure and heart rate were recorded. A cannula was inserted to the femoral vein for administration of a drug.
The effect of the drug was expressed in terms of frequency of the periodic reduction of blood flow rate.

[4] = system: Sympathetic Nerve α1 -Receptor; assay: Antagonistic activity on sympathetic nerve α1-receptor: inhibition of the phenylephrine-induced increase in blood pressure in anesthetized rats; type: in vivo; details: SD-SLC male rat, 10 mg/kg p.o.; after 180 minutes from the administration; inhibition of blood pressure increase by phenylephrine 100 μg/kg i.v.
[5] = after 60 minutes from the administration
[6] = ddy male mice, 200 mg/kg p.o. once a day for consecutive 4 days, dead animals per group

SMILES | Antagonistic Activity 5-HT2 (%) (Serotonin 2-Receptor; [5]) | Antagonistic Activity α1 (%) [1] [%] | Toxicity (Death Rate) (ddy male mice; [6]) | other results
O=C(O)/C=C\C(=O)O.O=C(c1ccc(F)cc1)[C@@H]1CCN(CCn2nc3n(c2=O)CCCC3)C[C@H]1c1ccc(F)cc1 (relative stereo) [Example 67, 2-[2-[trans-3-(4-Fluorophenyl)-4-(4-fluorobenzoyl)piperidin-1-yl]ethyl]-5,6,7,8-tetrahydro-3H-1,2,4-triazolo[4,3-a]pyridin-3(2H)-one Maleate] | 90 | 4 | – | –
Cl.O=C(c1ccc(F)cc1)C1CCN(CCn2c(=O)nc3n(c2=O)CCCC3)CC1 [Example 2, 3-[2-[4-(4-Fluorobenzoyl)piperidin-1-yl]ethyl]-6,7,8,9-tetrahydro-2H-pyrido[1,2-a]-1,3,5-triazine-2,4(3H)-dione Hydrochloride] | 93 | 9 | 1/5 | Myocardial Blood Flow (Mongrel dogs [2]; after 2 h ligature and reperfusion, control 62 ± 9): 89 ± 14 ml/min/100 g; Infarction Size (%) (Mongrel dogs [2]; ratio of cardiac infarction part to the whole left ventricle, control 30 ± 7): 11 ± 3%
O=C(c1ccc(F)cc1)C1CCN(CCn2c(=O)nc3n(c2=O)CCCC3)CC1 [Example 3, 3-[2-[4-(4-Fluorobenzoyl)piperidin-1-yl]ethyl]-6,7,8,9-tetrahydro-2H-pyrido1,2-a]-1,3,5-triazine-2,4(3H)-dione Maleate] | 93 | 39 | 0/5 | Number of Dead Animals (rats; 50 mg/kg (p.o.)): 0; Number of Dead Animals (rats; 200 mg/kg (p.o.)): 0; Number of Dead Animals (rats; 800 mg/kg (p.o.)): 0; Frequency of Periodic Reduction in Blood Flow Rate, After Admin. (Mongrel dogs [3]): 2.3 ± 1.2
O=C(c1ccc(F)cc1)C1(O)CCN(CCn2c(=O)nc3n(c2=O)CCCC3)CC1 [Example 11, 3-[2-[4-(4-Fluorobenzoyl)-4-hydroxy-piperidin-1-yl]ethyl]-6,7,8,9-tetrahydro-2H-pyrido[1,2-a-]-1,3,5-triazine-2,4(3H)-dione Dihydrochloride Hemihydrate] | 83 | 0 | – | –
Cl.Cl.O=c1nc2n(c(=O)n1CCN1CCC(=C(c3ccc(F)cc3)c3ccc(F)cc3)CC1)CCCC2 [Example 18, 3-[2-[4-[Bis(4-fluorophenyl)methylene]-piperidin-1-yl]ethyl]-6,7,8,9-tetrahydro-2H-pyrido-[1,2-a]-1,3,5-triazine-2,4(3H)-dione Dihydrochloride] | 93 | 6 | 0/5 | –
Cl.Cl.O=c1nc2n(c(=O)n1CCN1CCC(=C(c3ccc(F)cc3)c3ccc(F)cc3)CC1)CCC2 [Example 20, 3-[2-[4-[Bis(4-fluorophenyl)methylene]-piperidin-1-yl]ethyl]-7,8-dihydro-2H,6H-pyrrolo[1,2-a]-1,3,5-triazine-2,4(3H)-dione Dihydrochloride] | 83 | 1 | – | –
O=c1nc2sccn2c(=O)n1CCN1CCC(=C(c2ccc(F)cc2)c2ccc(F)cc2)CC1 [Example 21, 3-[2-[4-[Bis(4-fluorophenyl)methylene]piperidin-1-yl]ethyl]-2H-thiazolo-[3.2-a]-1,3,5-triazine-2,4(3H)-dione Hydrochloride] | 93 | 3 | – | –
O=c1n(CCN2CCC(=C(c3ccc(F)cc3)c3ccc(F)cc3)CC2)nc2n1CCCCC2 [Example 34, 2-[2-[4-[Bis(4-fluorophenyl)methylene]piperidin-1-yl]ethyl]-2,5,6,7,8,9-hexahydro-3H-1,2,4-triazolo[4,3-a]azepin-3-one Hydrochloride Hemihydrate] | 90 | 3 | 1/4 | –
CCO.Cl.O=c1n(CCN2CCC(=C(c3ccccc3)c3ccc(F)cc3)CC2)nc2n1CCCCC2 [Example 36, 2-[2-[4-[(4-Fluorophenyl)(phenyl)methylene]piperidin-1-yl]ethyl]-2,5,6,7,8,9-hexahydro-3H-1,2,4-triazolo[4,3-a]azepin-3-one Hydrochloride Ethanolate] | 84 | 3 | 0/5 | –
O=c1n(CCN2CCC(=C(c3ccc(F)cc3)c3ccc(F)cc3)CC2)nc2n1CCCO2 [Example 44, 2-[2-[4-Bis(4-fluorophenyl)methylene]piperidin-1-yl]ethyl]-6,7-dihydro-5H-1,2,4-triazolo[3.4-b1-1,3-oxazin-3(2H)-one Hydrochloride Hemihydrate] | 89 | 2 | 2/5 | –
O=C(c1ccc(F)cc1)C1CCN(CCn2nc3ccccn3c2=O)CC1 [Example 49, 2-[2-[4-(4-Fluorobenzoyl)piperidin-1-yl]ethyl]-1,2,4-triazolo[4,3-a]-pyridin-3(2H)-one Hydrochloride Hemihydrate] | – | – | 0/5 | Antagonistic Activity 5-HT2 (%) (Serotonin 2-Receptor; after 180 minutes from the administration): 82%; Antagonistic Activity α1 (%) [4]: 3%
Cl.O=C(c1ccc(F)cc1)C1CCN(CCn2nc3n(c2=O)CCCC3)CC1 [Example 51, 2-[2-[4-(4-Fluorobenzoyl)piperidin-1-yl]ethyl]-5,6,7,8-tetrahydro-1,2,4-triazolo[4,3-a]-pyridin-3(2H)-one Hydrochloride] | 95 | 3 | 0/5 | –
Cl.O=C(c1ccc(F)cc1)C1(O)CCN(CCn2nc3n(c2=O)CCCC3)CC1 [Example 63, 2-[2-[4-(4-Fluorobenzoyl)-4-hydroxypiperidin-1-yl]ethyl]-5,6,7,8-tetrahydro-1,2,4-triazolo[4,3-a]pyridin-3(2H)-one Hydrochloride] | 85 | 0 | – | –
O=C(c1ccc(Cl)cc1)C1CCN(CCn2nc3n(c2=O)CCCC3)CC1 [Example 75, 2-[2-[4-(4-Chlorobenzoyl)piperidin-1-yl]ethyl]-5,6,7,8-tetrahydro-1,2,4-triazolo[4,3-a]pyridin-3(2H)-one Hydrochloride] | 83 | 17 | 0/3 | –
O=C(c1ccc(F)cc1)C1CCN(CCn2c(=O)[nH]c3ccccc3c2=O)CC1 [Ketanserin, reference compound] | 96 | 73 | – | Toxicity (Death Rate) (ddy male mice; mouse, in vivo, po, 200 mg/kg): 5/5
Cc1nc2sccn2c(=O)c1CCN1CCC(=C(c2ccc(F)cc2)c2ccc(F)cc2)CC1 [Ritanserin, reference compound] | 84 | 5 | 3/5 | –
